This passage reports MIC results from ChEMBL document CHEMBL1157111, “Oridamycins A and B, anti-Saprolegnia parasitica indolosesquiterpenes isolated from Streptomyces sp. KS84” (2010).

≈ marks a conversion by molar mass, not a printed value. Calls of active or inactive are those of the source. The calls are words filed in the database; no cut-off is given here.

One assay concerns Phoma. The experiment in a line: Antifungal activity against Phoma CCF3818 assessed as inhibition of hyphae elongation after 24 hrs. Format: functional. The following applies: CCF3818, 24 h.
A further assay concerns Saprolegnia parasitica. The assay is described as follows: Antifungal activity against Saprolegnia parasitica assessed as inhibition of hyphae elongation after 24 hrs. The format is functional.
A further assay relates to Saccharomyces cerevisiae. The experiment in a line: Antifungal activity against Saccharomyces cerevisiae at 1000 ug/ml after 24 hrs. Format: functional, organism-based.

For `C[C@@H]1C[C@@H]([C@H](O)CC2CC(=O)NC(=O)C2)C(=O)[C@@H](C)C1` [CYCLOHEXIMIDE], the MIC in the assay with Phoma amounted to 25 µg/mL (≈ 88.9 µM).

On to `C[C@]1(C(=O)O)[C@@H](O)CC[C@]2(C)c3cc4c(cc3CC[C@@H]12)[nH]c1ccccc14` [ORIDAMYCIN A], for which the MIC in the assay on Saprolegnia parasitica came to 3 µg/mL (≈ 8.25 µM); in the assay on Phoma, 242 µg/mL (≈ 666 µM). For the same compound, in the assay on Saccharomyces cerevisiae, the MIC result was “inactive”.
